Measurements published in ChEMBL document CHEMBL5214910, “Rational Design of Dipicolylamine-Containing Carbazole Amphiphiles Combined with Zn2+ as Potent Broad-Spectrum Antibacterial Agents with a Membrane-Disruptive Mechanism” (J Med Chem, 2021).
Values after ≈ are worked out from the molar mass of the structure shown. Active and inactive are the calls of the source. No cut-off for these calls is given here.

Assays:
Staphylococcus aureus [1] = experiment: Antibacterial activity against Staphylococcus aureus ATCC 29213 assessed as inhibition of bacterial growth by measuring salt resistance incubated for 24 hrs in the presence of 12.5 ug/ml Zn2+ and 100 ug/ml Ca2+ by Muller hinton broth based dilution assay; assay type: functional
Staphylococcus aureus [2] = experiment: Antibacterial activity against Staphylococcus aureus ATCC 29213 assessed as inhibition of bacterial growth by measuring salt resistance incubated for 24 hrs in the presence of 12.5 ug/ml Zn2+ and 3220 ug/ml Na+ by Muller hinton broth based dilution assay; assay type: functional
Staphylococcus aureus [3] = experiment: Antibacterial activity against Methicillin-resistant Staphylococcus aureus NCTC10442 assessed as inhibition of bacterial growth incubated for 24 hrs in the presence of 3.125 ug/mL Zn2+ by Muller hinton broth based dilution assay; assay type: functional
Staphylococcus aureus [4] = experiment: Antibacterial activity against Staphylococcus aureus ATCC 29213 assessed as inhibition of bacterial growth incubated for 24 hrs in the presence of 0.39 ug/mL Zn2+ by Muller hinton broth based dilution assay; assay type: functional
Staphylococcus aureus [5] = experiment: Antibacterial activity against Staphylococcus aureus ATCC 29213 assessed as inhibition of bacterial growth incubated for 24 hrs in the presence of […] ug/mL Zn2+ by Muller hinton broth based dilution assay; assay type: functional
Acinetobacter baumannii [6] = experiment: Antibacterial activity against Acinetobacter baumannii R2889 assessed as inhIbition of bacterial growth incubated for 24 hrs in the presence of 12.5 ug/mL Zn2+ by Muller hinton broth based dilution assay; assay type: functional
Lipopolysaccharide (LPS) [7] = experiment: Displacement of BODIPY-TR-cadaverin from Pseudomonas aeruginosa Lipopolysaccharide at 16 times of MIC incubated for 30 mins in the presence of 12.5 ug/ml Zn2+ by fluorescence based microplate reader analysis relative to control
Escherichia coli [8] = experiment: Antibacterial activity Escherichia coli ATCC 25922 assessed as inhibition of bacterial growth incubated for 24 hrs in the presence of 0.39 ug/mL Zn2+ by Muller hinton broth based dilution assay; assay type: functional
Staphylococcus aureus [9] = experiment: Antibacterial activity against Methicillin-resistant Staphylococcus aureus NCTC10442 assessed as inhibition of bacterial growth incubated for 24 hrs in the presence of 6.25 ug/mL Zn2+ by Muller hinton broth based dilution assay; assay type: functional
Acinetobacter baumannii [10] = experiment: Antibacterial activity against Acinetobacter baumannii ATCC 17978 assessed as inhibition of bacterial growth by measuring salt resistance incubated for 24 hrs in the presence of 12.5 ug/ml Zn2+ and 24.3 ug/ml Mg2+ by Muller hinton broth based dilution assay; assay type: functional
Staphylococcus aureus [11] = experiment: (§1) Antibacterial activity against Staphylococcus aureus ATCC 29213 in cyclophosphamide immunosuppressed C57BL/6 mouse model of bacterial keratitis assessed as log reduction in viable bacterial count in infected cornea at 0.5 % pre-infected with bacteria for 24 hrs followed by topical administration of compound four times a day for 3 days in the presence of 12.5 ug/ml of Zn2+; assay type: functional; details: route top, time 3 day
Staphylococcus aureus [12] = experiment: Antibacterial activity against Methicillin-resistant Staphylococcus aureus N315 assessed as inhibition of bacterial growth incubated for 24 hrs by Muller hinton broth based dilution assay; assay type: functional
Lipopolysaccharide (LPS) [13] = experiment: Displacement of BODIPY-TR-cadaverin from Pseudomonas aeruginosa Lipopolysaccharide at 4 times of MIC incubated for 30 mins by fluorescence based microplate reader analysis relative to control
Pseudomonas aeruginosa [14] = experiment: Antibacterial activity Pseudomonas aeruginosa ATCC 9027 assessed as inhibition of bacterial growth incubated for 24 hrs in the presence of 0.78 ug/mL Zn2+ by Muller hinton broth based dilution assay; assay type: functional
Escherichia coli [15] = experiment: Antibacterial activity against Escherichia coli ATCC 25922 assessed as log reduction in bacterial count at 8 times of MIC incubated for 30 mins in the presence of 12.5 ug/ml Zn2+ by Muller hinton agar based time kill assay; assay type: functional; details: 0.5 h
Staphylococcus aureus [16] = experiment: Antibacterial activity against Methicillin-resistant Staphylococcus aureus NCTC10442 assessed as inhibition of bacterial growth incubated for 24 hrs in the presence of 25 ug/mL Zn2+ by Muller hinton broth based dilution assay; assay type: functional
Staphylococcus aureus [17] = experiment: Antibacterial activity against Methicillin-resistant Staphylococcus aureus NCTC10442 assessed as inhibition of bacterial growth by measuring salt resistance incubated for 24 hrs in the presence of 12.5 ug/ml Zn2+ and 3220 ug/ml Na+ by Muller hinton broth based dilution assay; assay type: functional
Escherichia coli [18] = experiment: Antibacterial activity Escherichia coli ATCC 25922 assessed as inhibition of bacterial growth incubated for 24 hrs in the presence of 3.125 ug/mL Zn2+ by Muller hinton broth based dilution assay; assay type: functional
Staphylococcus aureus [19] = experiment: Antibacterial activity against Methicillin-resistant Staphylococcus aureus NCTC10442 assessed as inhibition of bacterial growth by measuring salt resistance incubated for 24 hrs in the presence of 12.5 ug/ml Zn2+ and 175.5 ug/ml K+ by Muller hinton broth based dilution assay; assay type: functional
Cell membrane = experiment: Disruption of cell membrane integrity in Staphylococcus aureus ATCC 29213 assessed as increase in red fluorescence at 8 times of MIC measured for 2 hrs in the presence of 12.5 ug/ml Zn2+ by PI and SYTO staining based assay
Staphylococcus aureus [20] = experiment: Antibacterial activity against Staphylococcus aureus ATCC 29213 assessed as log reduction in bacterial count at 4 times of MIC incubated for 1 hrs in the presence of 12.5 ug/ml Zn2+ by Muller hinton agar based time kill assay; assay type: functional
Escherichia coli [21] = experiment: Antibacterial activity Escherichia coli ATCC 25922 assessed as inhibition of bacterial growth incubated for 24 hrs by Muller hinton broth based dilution assay; assay type: functional
Pseudomonas aeruginosa [22] = experiment: Antibacterial activity Pseudomonas aeruginosa ATCC 9027 assessed as inhibition of bacterial growth incubated for 24 hrs in the presence of 25 ug/mL Zn2+ by Muller hinton broth based dilution assay; assay type: functional
Pseudomonas aeruginosa [23] = experiment: as §1, with “Pseudomonas aeruginosa” for “Staphylococcus aureus”, “9027” for “29213”, “in” for “in cyclophosphamide immunosuppressed”; assay type: functional; details: route top, time 3 day
[24] = Ratio of MIC for antibacterial activity against Acinetobacter baumannii ATCC 17978 to MIC for antibacterial activity against Acinetobacter baumannii ATCC 17978 in the presence of Zn2+; assay type: functional
Acinetobacter baumannii [25] = experiment: Antibacterial activity against Acinetobacter baumannii ATCC 17978 assessed as inhIbition of bacterial growth incubated for 24 hrs in the presence of 12.5 ug/mL Zn2+ by Muller hinton broth based dilution assay; assay type: functional
Staphylococcus aureus [26] = experiment: Antibacterial activity against Methicillin-resistant Staphylococcus aureus N315 assessed as inhibition of bacterial growth incubated for 24 hrs in the presence of 12.5 ug/mL Zn2+ by Muller hinton broth based dilution assay; assay type: functional
[27] = Ratio of MIC for antibacterial activity against Acinetobacter baumannii R2889 to MIC for antibacterial activity against Acinetobacter baumannii R2889 in the presence of Zn2+; assay type: functional
Escherichia coli [28] = experiment: Antibacterial activity against Escherichia coli ATCC 25922 assessed as inhibition of bacterial growth by measuring salt resistance incubated for 24 hrs in the presence of 12.5 ug/ml Zn2+ and 3220 ug/ml Na+ by Muller hinton broth based dilution assay; assay type: functional
Staphylococcus aureus [29] = experiment: Antibacterial activity against Staphylococcus aureus ATCC 29213 assessed as inhibition of bacterial growth by measuring salt resistance incubated for 24 hrs in the presence of 12.5 ug/ml Zn2+ and 175.5 ug/ml K+ by Muller hinton broth based dilution assay; assay type: functional

SMILES: CC(C)=CCn1c2ccccc2c2c(OCC(O)CN(Cc3ccccn3)Cc3ccccn3)cccc21 (stereo not given)
- MIC (Staphylococcus aureus [1]): 3.12 µg/mL
- MIC (Staphylococcus aureus [2]): 1.56 µg/mL
- MIC (Staphylococcus aureus [3]): 1.56 µg/mL
- MIC (Staphylococcus aureus [4]): 3.12 µg/mL
- MIC (Staphylococcus aureus [5]): 3.12 µg/mL
- MIC (Acinetobacter baumannii [6]): 1.56 µg/mL
- Activity (Lipopolysaccharide (LPS) [7]): 91%
- MIC (Escherichia coli [8]): 6.25 µg/mL
- MIC (Staphylococcus aureus [9]): 0.78 µg/mL
- MIC (Acinetobacter baumannii [10]): 1.56 µg/mL
- log(activity) (Staphylococcus aureus [11]): 6.5
- MIC (Staphylococcus aureus [12]): 1.56 µg/mL (≈ 3.08 µM)
- Activity (Lipopolysaccharide (LPS) [13]): -0.56%
- MIC (Pseudomonas aeruginosa [14]): > 50 µg/mL
- log(activity) (Escherichia coli [15]): 3.59
- MIC (Staphylococcus aureus [16]): 0.78 µg/mL
- MIC (Staphylococcus aureus [17]): 1.56 µg/mL
- MIC (Escherichia coli [18]): 3.12 µg/mL
- MIC (Staphylococcus aureus [19]): 1.56 µg/mL
- Activity (Cell membrane): Active
- log(activity) (Staphylococcus aureus [20]): 3.03
- MIC (Escherichia coli [21]): 6.25 µg/mL (≈ 12.3 µM)
- MIC (Pseudomonas aeruginosa [22]): 3.12 µg/mL
- log(activity) (Pseudomonas aeruginosa [23]): 4.46
- Ratio [24]: 2
- MIC (Acinetobacter baumannii [25]): 0.78 µg/mL
- MIC (Staphylococcus aureus [26]): 0.78 µg/mL
- Ratio [27]: 2
- MIC (Escherichia coli [28]): 3.12 µg/mL
- MIC (Staphylococcus aureus [29]): 1.56 µg/mL
